# Test results: ChEMBL document CHEMBL1201862, “PubChem BioAssay data set” (2004)
# Activity calls are given as the source filed them.
# How the values were obtained:
# [1] = molecular target: Oxysterols receptor LXR-beta (Homo sapiens, UniProt P55055); assay type: functional, cell-based;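 further: Cell-based luminescence dose-response assay of agonist activity at LXR, run as a confirmatory counterscreen to a daf-12 agonist screen; HEK293 cells with Gal4-LXR fusion and GAL4-driven luciferase reporter; agonist potency from rising luciferase signal of a Gal4-LXR reporter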
# Chain of Oxysterols receptor LXR-beta (P55055 whole entry, the tested form may be a part): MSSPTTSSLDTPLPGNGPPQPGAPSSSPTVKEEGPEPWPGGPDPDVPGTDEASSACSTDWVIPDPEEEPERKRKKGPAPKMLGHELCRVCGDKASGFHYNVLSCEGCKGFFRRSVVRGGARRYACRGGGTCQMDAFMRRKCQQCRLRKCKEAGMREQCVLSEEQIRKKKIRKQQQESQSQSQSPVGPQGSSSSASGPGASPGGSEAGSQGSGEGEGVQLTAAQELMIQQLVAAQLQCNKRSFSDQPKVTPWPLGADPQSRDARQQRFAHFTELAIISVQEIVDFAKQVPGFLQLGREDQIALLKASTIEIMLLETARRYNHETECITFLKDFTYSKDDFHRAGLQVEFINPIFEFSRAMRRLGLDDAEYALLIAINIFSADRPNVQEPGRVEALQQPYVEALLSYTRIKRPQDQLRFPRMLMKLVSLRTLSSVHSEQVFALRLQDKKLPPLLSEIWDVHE
# [2] = Luminescence Cell-Based Dose Retest to Confirm Inhibitors of Cancer Stem Cells. [Related pubchem assays (depositor defined):AID2717, AID2721]; assay type: functional; details: Homo sapiens
# [3] = molecular target: Disintegrin and metalloproteinase domain-containing protein 17 (Homo sapiens, UniProt P78536); experiment: exosite inhibitors of ADAM17, dose response, biochemical (AID 743260)
# Chain of Disintegrin and metalloproteinase domain-containing protein 17 (P78536 whole entry, the tested form may be a part): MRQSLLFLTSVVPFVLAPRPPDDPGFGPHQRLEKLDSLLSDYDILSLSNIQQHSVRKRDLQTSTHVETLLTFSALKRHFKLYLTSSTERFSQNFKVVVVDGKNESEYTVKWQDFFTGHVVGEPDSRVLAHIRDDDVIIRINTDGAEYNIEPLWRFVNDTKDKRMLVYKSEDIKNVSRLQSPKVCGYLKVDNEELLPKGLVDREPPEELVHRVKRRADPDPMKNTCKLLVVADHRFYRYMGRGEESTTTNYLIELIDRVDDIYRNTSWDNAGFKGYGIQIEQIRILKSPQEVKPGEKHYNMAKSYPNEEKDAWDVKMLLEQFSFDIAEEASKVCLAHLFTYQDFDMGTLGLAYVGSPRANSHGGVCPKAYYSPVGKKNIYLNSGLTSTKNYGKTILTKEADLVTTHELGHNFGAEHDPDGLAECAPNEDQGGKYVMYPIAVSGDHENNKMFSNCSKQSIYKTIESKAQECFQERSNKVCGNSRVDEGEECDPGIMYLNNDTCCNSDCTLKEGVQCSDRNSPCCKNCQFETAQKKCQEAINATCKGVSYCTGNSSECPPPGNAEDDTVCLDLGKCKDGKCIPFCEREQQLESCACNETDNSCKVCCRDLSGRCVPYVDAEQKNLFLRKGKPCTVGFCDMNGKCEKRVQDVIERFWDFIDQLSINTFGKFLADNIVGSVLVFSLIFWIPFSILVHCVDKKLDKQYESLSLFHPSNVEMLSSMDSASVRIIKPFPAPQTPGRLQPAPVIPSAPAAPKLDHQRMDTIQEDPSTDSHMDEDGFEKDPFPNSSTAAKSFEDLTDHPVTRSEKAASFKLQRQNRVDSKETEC
# [4] = ADAM10 protease inhibitors, dose response, selectivity assay for ADAM17 exosite inhibitor project, biochemical, FRET peptide substrate, recombinant human ADAM10 (AID 743259);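 further: ADAM10 enzyme cleaving a FRET peptide substrate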
# [5] = P. falciparum late gametocyte killing, dose response, luminescence (AID 1117278); assay type: functional, cell-based;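 further: gametocytes exposed to compound for 24 hours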
# [6] = Jurkat T cell cytotoxicity, dose response, cytotoxicity control for P. falciparum gametocyte viability project, luminescence (AID 1117277); assay type: functional, cell-based;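 further: potency reflects loss of cellular ATP meaning fewer viable cells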
# [7] = inhibitors of PGC1a acetylation in cells, dose response, cell-based, cherry-picked samples (AID 720514); assay type: functional;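 further: potency may reflect raised or lowered acetylation signal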
# [8] = cytotoxicity in OVCAR8 ovarian cancer cells, dose response, PAX8 project, cell-based, plate reader, dry powder samples (AID 743197); assay type: functional; details: OVCAR-8
# Paired box protein Pax-8 = Paired box protein Pax-8 (Homo sapiens, UniProt Q06710); experiment: inhibitors of PAX8-driven TPO luciferase reporter, dose response, RMG-I cells, cherry-pick (AID 687027); assay type: functional, cell-based;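 further: luciferase reporter driven by Pax8 target thyroperoxidase promoter measured by SteadyGlo luminescence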
# Chain of Paired box protein Pax-8 (Q06710 whole entry): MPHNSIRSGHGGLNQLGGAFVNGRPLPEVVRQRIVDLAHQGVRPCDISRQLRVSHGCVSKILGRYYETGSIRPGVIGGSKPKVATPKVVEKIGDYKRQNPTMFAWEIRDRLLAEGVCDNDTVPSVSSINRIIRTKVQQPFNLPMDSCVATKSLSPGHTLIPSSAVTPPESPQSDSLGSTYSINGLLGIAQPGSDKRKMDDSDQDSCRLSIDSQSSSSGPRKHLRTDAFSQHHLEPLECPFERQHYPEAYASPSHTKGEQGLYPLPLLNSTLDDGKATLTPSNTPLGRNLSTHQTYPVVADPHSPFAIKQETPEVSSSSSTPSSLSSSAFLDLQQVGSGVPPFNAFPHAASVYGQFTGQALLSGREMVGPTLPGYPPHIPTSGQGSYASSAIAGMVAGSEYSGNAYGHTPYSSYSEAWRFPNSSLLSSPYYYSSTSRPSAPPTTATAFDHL
# [9] = HEK293T cytotoxicity, dose response, cytotoxicity control for miR-122 modulator project, cell-based, inhibitor set, cherry-pick, set 2 (AID 720697); assay type: functional
# [10] = P. falciparum ATP4 D1247Y mutant growth inhibitors, dose response, NITD609-resistant line, SYBR Green, dry powder (AID 1159571); assay type: functional, cell-based;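 further: parasites synchronized at ring stage by sorbitol before testing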
# [11] = P. falciparum Dd2 growth inhibitors, dose response, SYBR Green, dry powder samples (AID 1159566); assay type: functional, cell-based;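 further: potency for growth inhibition with lower SYBR green DNA signal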
# [12] = P. falciparum 3D7-ScDHODH growth inhibitors, dose response, SYBR Green, dry powder samples (AID 1159570); assay type: functional, cell-based;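 further: parasite growth measured after 72 hours of compound exposure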
# [13] = P. falciparum Dd2 growth inhibitors, dose response, SYBR Green, cherry-picked samples (AID 1159567); assay type: functional, cell-based
# [14] = Concentration-dependent survival of SW480 colon cancer line, luminescence detection with CellTiter-Glo, half-maximal inhibitory concentration (AID 1117338); assay type: functional
# [15] = RKO cell viability reduction, dose response, CellTiter-Glo luminescence (AID 1117322); assay type: functional
# [16] = cytotoxicity toward HT-29 cells – cell-based, CellTiter-Glo luminescence, IC50, dose response (AID 1117330); assay type: functional
# [17] = HCT116 cell viability decrease, GSK3B pretreatment – CellTiter-Glo, IC50, dose response (AID 1117339); assay type: functional; details: HCT-116
# [18] = cytotoxicity toward Colo320 cells – cell-based, CellTiter-Glo luminescence, IC50, dose response (AID 1117334); assay type: functional; details: COLO 320
# [19] = SNU-C1 cell viability reduction, dose response, CellTiter-Glo luminescence (AID 1117323); assay type: functional, cell-based
# [20] = cytotoxicity toward HCT116 cells – cell-based, CellTiter-Glo luminescence, IC50, dose response (AID 1117332); assay type: functional; details: HCT-116
# [21] = CellTiter-Glo luminescent dose response of DLD-1 viability loss (AID 1117352); assay type: functional
# [22] = HeLa 2N DNA content increase, dose response, cell-based, IC50 (AID 1117349); assay type: functional
# [23] = molecular target: Photoreceptor-specific nuclear receptor (Homo sapiens, UniProt Q9Y5X4); assay type: functional, cell-based;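 further: CHO-S cells with Gal4-NCOR and VP16-NR2E3 two-hybrid luciferase reporter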
# Chain of Photoreceptor-specific nuclear receptor (Q9Y5X4 whole entry, the tested form may be a part): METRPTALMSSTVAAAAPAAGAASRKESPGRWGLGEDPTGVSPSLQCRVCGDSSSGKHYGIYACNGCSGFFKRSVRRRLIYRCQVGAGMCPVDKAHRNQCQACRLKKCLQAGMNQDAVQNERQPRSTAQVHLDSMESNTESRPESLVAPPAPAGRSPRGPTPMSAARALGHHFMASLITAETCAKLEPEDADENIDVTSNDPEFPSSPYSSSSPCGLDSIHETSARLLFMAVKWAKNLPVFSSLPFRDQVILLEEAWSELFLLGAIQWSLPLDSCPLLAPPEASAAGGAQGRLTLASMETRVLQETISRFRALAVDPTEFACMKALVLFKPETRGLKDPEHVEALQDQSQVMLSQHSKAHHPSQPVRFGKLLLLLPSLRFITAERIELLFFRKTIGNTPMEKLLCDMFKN
# [24] = half-maximal inhibitory concentration for glucagon-like peptide-1 release, STC-1 cell line, dose-response (AID 1117345); assay type: functional, cell-based
# [25] = HeLa 4N DNA content increase, dose response, cell-based, IC50 (AID 1117351); assay type: functional
# [26] = Glucagon-like peptide 1 release potency, NCI-H716 cell line, dose-response, half-maximal inhibitory concentration (AID 1117344); assay type: functional, cell-based
compound,measurement,setting,value
Cc1nn(-c2ccc(Cl)cc2)c(=O)c2ccccc12,EC50,cells,> 67.5 µM (inactive)
same,EC50,[1],> 67.5 µM (inactive)
O=S(=O)(c1ccccc1)N(CC(O)Cn1c2ccccc2c2ccccc21)c1ccccc1 (stereo not given),AC50,[2],3.66 µM (active)
same,IC50,[3],> 69.5 µM (inactive)
same,IC50,[4],> 69.5 µM (inactive)
O=c1c2ccccc2ncn1CCCCOc1ccc(Br)cc1,IC50,[5],> 109 µM (inactive)
same,IC50,[6],> 83.3 µM (inactive)
CCOC(=O)C1=CN(Cc2cccc(F)c2)S(=O)(=O)NC1c1ccc2ccccc2c1 (stereo not given),IC50,[3],> 69.5 µM (inactive)
same,IC50,[4],> 7.73 µM (active)
O=C(Nc1cccc(C(=O)N2CCOCC2)c1)c1ccccc1,IC50,[5],> 109 µM (inactive)
same,IC50,[6],> 83.3 µM (inactive)
C[C@@H]1CCCCO[C@H](CN(C)Cc2ccc(Cl)c(Cl)c2)[C@H](C)CN([C@@H](C)CO)C(=O)c2cc(NC(=O)Nc3ccc(F)cc3)ccc2O1,AC50,[7],14.3 µM (active)
same,AC50,[8],65.1 µM (active)
same,AC50,Paired box protein Pax-8,11.3 µM (active)
COCC(=O)Nc1ccc2c(c1)C(=O)N(C)[C@@H]1CC[C@@H](CC(=O)OC)O[C@@H]1CO2,AC50,[9],< 0.195 µM (active)
C[C@H](CO)N1C[C@H](C)[C@@H](CN(C)C(=O)Nc2ccc(-c3ccccc3)cc2)OCc2ccccc2-c2c(n(C)c3ccccc23)C1=O,AC50,[10],0.577 µM (active)
same,AC50,[11],0.544 µM (active)
same,AC50,[12],0.684 µM (active)
same,AC50,[13],1.41 µM (active)
[H]/C=C\c1c(C)c2cc3nc(cc4[nH]c(cc5nc(cc1[nH]2)C(C)=C5CCC(=O)O)c(CCC(=O)OC)c4C)[C@@]1(C)C3=CC=C(C(=O)OC)[C@@H]1C(=O)OC,IC50,[14],> 6.67 µM (inactive)
same,IC50,[15],3.53 µM (active)
same,IC50,[16],3.94 µM (active)
same,IC50,[17],4.26 µM (active)
same,IC50,[18],9.62 µM (inactive)
same,IC50,[19],5.85 µM (inactive)
same,IC50,[20],5.65 µM (inactive)
CC(C)NCC(O)COc1ccc(CCOCC2CC2)cc1 (stereo not given) [BETAXOLOL],IC50,[14],> 20 µM (inactive)
same,IC50,[15],> 20 µM (inactive)
same,IC50,[16],> 20 µM (inactive)
same,IC50,[18],6.17 µM (inactive)
same,IC50,[21],> 20 µM (inactive)
same,IC50,[19],> 20 µM (inactive)
same,IC50,[20],> 20 µM (inactive)
CCC(C)(C)C(=O)O[C@H]1C[C@@H](C)C=C2C=C[C@H](C)[C@H](CC[C@@H]3C[C@@H](O)CC(=O)O3)[C@H]21 [SIMVASTATIN],IC50,[22],> 10 µM (inactive)
same,IC50,[23],1.16 µM (active)
same,IC50,[15],> 20 µM (inactive)
same,IC50,[24],3.29 µM (active)
same,IC50,[16],> 20 µM (inactive)
same,IC50,[25],> 10 µM (inactive)
same,IC50,[17],4.73 µM (active)
same,IC50,[18],4.94 µM (active)
same,IC50,[21],> 20 µM (inactive)
same,IC50,[26],21.5 µM (inactive)
same,IC50,[19],> 20 µM (inactive)
same,IC50,[20],> 20 µM (inactive)
